Experimental data from patent US7211576B2, “Diaminothiazoles” (Hoffmann-La Roche Inc., priority 2004, dated 2007).

Columns and labels:
[1] = system: HCT116, a colorectal carcinoma cell line; test: Tetrazolium dye (MTT) proliferation assay; assay type: cell-based; settings: Homo sapiens, HCT-116; HCT116 cells, inhibition of cell proliferation
Description: Proliferation was evaluated by the tetrazolium dye assay according to the procedure of Denizot and Lang (Denizot, F. and Lang, R. J Immunol Methods 1986, 89, 271–277). The cell line used was HCT116, a colorectal carcinoma cell line obtained from the American Type Cell Culture Collection (ATCC; Rockville, Md.). The cells were grown in McCoy's 5A medium supplemented with 10% FCS and L-glutamine.
Cells were plated at the appropriate seeding density to give logarithmic growth over the course of the assay in a 96-well tissue culture plate. Plates were incubated overnight at 37° C. in a humidified incubator with 5% CO2. The next day, test compounds were serially diluted to four times the final concentration in the appropriate medium containing 1.2% DMSO. One-fourth final volume of each dilution was added in duplicate to the plates containing cells. The same volume of 1.2% DMSO in medium was added to a row of “control wells” such that the final concentration of DMSO in each well was 0.3%. Wells to which no cells were added served as the “blank.” Wells to which no inhibitor was added served as “no inhibitor control.” The plates were) returned to the incubator, and at set time points (determined by their growth curves) plates were analyzed as described below.
3-(4,5-dimethylthiazole-2-yl)-2,5-diphenyl-2H-tetrazolium bromide (thiazolyl blue; MTT; Sigma) was added to each well to yield a final concentration of 1 mg/ml. Plates were returned to the incubator for 2.5–3 hours at 37° C. The MTT-containing medium was removed and the resulting formazan metabolite was solubilized in 100% ethanol with shaking for 15 minutes at room temperature. Absorbance readings were taken in a microtiter plate reader (Dynatech and Molecular Devices plate readers were used interchangeably) at a wavelength of 570 nm with a 650 nm reference. Percent inhibition (% INH) is calculated by subtracting the absorbance of the blank well from all wells, then subtracting the ratio of the average absorbance of each test duplicate (SAVE) by the average of the controls (CAVE) from 1.00. The final number is then multiplied by 100 (% INH=(1.00−SAVE/CAVE)×100). The concentration at which 50% inhibition of cell proliferation is obtained (the IC50) is determined from the linear regression of a plot of the logarithm of the concentration versus percent inhibition.

[2] = biological target: human cyclin D1-CDK4 (Homo sapiens, UniProt P11802); test: FlashPlate kinase assay, cyclin D1-CDK4; assay type: biochemical; settings: Rb protein substrate, 1 μM ATP, 33P-ATP, 30 minutes room temperature; read-out: CDK4 IC50
Sequence of human cyclin D1-CDK4 (P11802 whole entry): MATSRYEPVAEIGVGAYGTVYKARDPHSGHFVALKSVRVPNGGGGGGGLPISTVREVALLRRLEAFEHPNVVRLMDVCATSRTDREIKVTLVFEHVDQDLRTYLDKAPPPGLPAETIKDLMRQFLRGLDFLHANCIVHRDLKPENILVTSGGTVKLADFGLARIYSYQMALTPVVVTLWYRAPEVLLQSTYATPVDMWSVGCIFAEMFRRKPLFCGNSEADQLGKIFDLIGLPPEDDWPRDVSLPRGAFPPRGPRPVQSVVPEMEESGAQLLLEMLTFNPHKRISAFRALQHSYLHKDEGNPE
Sequence of human cyclin D1-CDK4 (P24385 whole entry partner): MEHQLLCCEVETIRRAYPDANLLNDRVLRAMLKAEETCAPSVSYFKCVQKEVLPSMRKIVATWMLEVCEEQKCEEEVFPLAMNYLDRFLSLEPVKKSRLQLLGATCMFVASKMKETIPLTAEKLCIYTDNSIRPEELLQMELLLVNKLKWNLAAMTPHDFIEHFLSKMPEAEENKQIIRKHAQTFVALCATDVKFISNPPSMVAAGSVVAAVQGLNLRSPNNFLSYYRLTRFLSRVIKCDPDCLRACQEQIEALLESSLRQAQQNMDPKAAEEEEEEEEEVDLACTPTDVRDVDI

[3] = biological target: human cyclin E-CDK2 (Homo sapiens, UniProt P24941); test: FlashPlate kinase assay, cyclin E-CDK2; assay type: biochemical; settings: Rb protein substrate, 1 μM ATP, 33P-ATP, 30 minutes room temperature
[4] = biological target: human cyclin B-CDK1 (Homo sapiens, UniProt P06493); test: FlashPlate kinase assay, cyclin B-CDK1; assay type: biochemical; settings: Rb protein substrate, 1 μM ATP, 33P-ATP, 30 minutes room temperature
Sequence of human cyclin B-CDK1 (P06493 whole entry): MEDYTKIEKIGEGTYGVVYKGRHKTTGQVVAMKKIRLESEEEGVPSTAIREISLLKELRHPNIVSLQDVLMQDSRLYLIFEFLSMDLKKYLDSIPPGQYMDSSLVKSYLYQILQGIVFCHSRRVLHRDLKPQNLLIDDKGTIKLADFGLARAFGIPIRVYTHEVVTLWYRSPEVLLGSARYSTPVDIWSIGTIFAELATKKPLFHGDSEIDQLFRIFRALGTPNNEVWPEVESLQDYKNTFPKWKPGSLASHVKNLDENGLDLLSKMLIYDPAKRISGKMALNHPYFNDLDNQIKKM
Sequence of human cyclin B-CDK1 (P14635 whole entry partner): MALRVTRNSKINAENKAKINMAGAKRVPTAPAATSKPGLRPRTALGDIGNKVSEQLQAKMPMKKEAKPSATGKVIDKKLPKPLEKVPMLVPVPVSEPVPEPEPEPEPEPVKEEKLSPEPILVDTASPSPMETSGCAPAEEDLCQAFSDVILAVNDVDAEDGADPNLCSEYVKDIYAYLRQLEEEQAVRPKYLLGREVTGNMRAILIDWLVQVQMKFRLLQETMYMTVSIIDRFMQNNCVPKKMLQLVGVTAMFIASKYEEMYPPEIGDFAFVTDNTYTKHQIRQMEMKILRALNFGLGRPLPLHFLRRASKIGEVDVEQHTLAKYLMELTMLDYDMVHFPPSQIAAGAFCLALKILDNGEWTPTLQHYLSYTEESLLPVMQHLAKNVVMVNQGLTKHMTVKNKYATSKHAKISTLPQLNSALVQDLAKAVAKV

Work on `COc1ccc(C(=O)c2sc(Nc3ccc(N4CCC(N5CCCC5)CC4)cc3)nc2N)cc1[N+](=O)[O-]` [Example 107, {4-Amino-2-[4-(4-pyrrolidin-1-yl-piperidin-1-yl)-phenylamino]-thiazol-5-yl}-(4-methoxy-3-nitro-phenyl)-methanone] yielded an IC50 [1] of 3.68 µM, an IC50 [2] of 0.038 µM and an IC50 [3] of 2.39 µM. It also gave an IC50 [4] of 1 µM.
`COc1ccc(C(=O)c2sc(Nc3ccc(N4CCC(N5CCCC5)CC4)cc3)nc2N)cc1F` [Example 23] gave an IC50 [1] of 1.75 µM, an IC50 [2] of 0.012 µM and an IC50 [3] of 2.89 µM. The IC50 [4] was 1.28 µM.
Work on `Nc1nc(Nc2ccc(N3CCC(N4CCCC4)CC3)cc2)sc1C(=O)c1cccc(F)c1` [Example 24, {4-Amino-2-[4-(4-pyrrolidin-1-yl-piperidin-1-yl)-phenylamino]-thiazol-5-yl}-(3-fluoro-phenyl)-methanone] yielded an IC50 [1] of 1.22 µM, an IC50 [2] of 0.032 µM and an IC50 [3] of 0.86 µM. The IC50 [4] was 0.27 µM.
For `CCc1cccc(C(=O)c2sc(Nc3ccc(N4CCC(N5CCCC5)CC4)cc3)nc2N)c1` [Example 114, {4-Amino-2-[4-(4-pyrrolidin-1-yl-piperidin-1-yl)-phenylamino]-thiazol-5-yl}-(3-ethyl-phenyl)-methanone], the IC50 [1] was 1.37 µM, the IC50 [2] was 0.012 µM and the IC50 [3] was 0.945 µM. The IC50 [4] was 2.71 µM.
Work on `COc1cccc(C(=O)c2sc(Nc3ccc(N4CCC(N(C)C)CC4)cc3)nc2N)c1` [Example 45, {4-Amino-2-[4-(4-dimethylamino-piperidin-1-yl)-phenylamino]-thiazol-5-yl}-(3-methoxy-phenyl)-methanone] yielded an IC50 [1] of 2.46 µM, an IC50 [2] of 0.005 µM and an IC50 [3] of 5.16 µM. For the same molecule, the IC50 [4] was 2.44 µM.
In the case of `CCNC1CCN(c2ccc(Nc3nc(N)c(C(=O)c4cccc(OC)c4)s3)cc2)CC1` [Example 135, {4-Amino-2-[4-(4-ethylamino-piperidin-1-yl)-phenylamino]-thiazol-5-yl}-(3-methoxy-phenyl)-methanone], the IC50 [1] is reported as 3.37 µM, the IC50 [2] is reported as 0.028 µM and the IC50 [3] is reported as 6.1 µM. It also gave an IC50 [4] of 1.15 µM.
With `CN(C)C1CCN(c2ccc(Nc3nc(N)c(C(=O)c4cccc(F)c4)s3)cc2)CC1` [Example 41, {4-Amino-2-[4-(4-dimethylamino-piperidin-1-yl)-phenylamino]-thiazol-5-yl}-(3-fluoro-phenyl)-methanone] the IC50 [1] was 1.41 µM, the IC50 [2] was 0.002 µM and the IC50 [3] was 0.888 µM. For the same molecule, the IC50 [4] was 0.268 µM.
In the case of `COc1ccc(C(=O)c2sc(Nc3ccc(N4CCC(N5CCCC(O)C5)CC4)cc3)nc2N)cc1F` (stereo not drawn) [Example 36, {4-Amino-2-[4-(3-hydroxy-[1,4′]bipiperidinyl-1′-yl)-phenylamino]-thiazol-5-yl}-(3-fluoro-4-methoxy-phenyl)-methanone], the IC50 [1] is reported as 0.009 µM, the IC50 [2] is reported as 3.63 µM and the IC50 [3] is reported as 3 µM. The IC50 [4] was 1.73 µM.
`CCc1cccc(C(=O)c2sc(Nc3ccc(N4CCC(N5CCCCC5)CC4)cc3)nc2N)c1` [Example 117, [4-Amino-2-(4-[1,4′]bipiperidinyl-1′-yl-phenylamino)-thiazol-5-yl]-(3-ethyl-phenyl)-methanone] gave an IC50 [1] of 1.31 µM, an IC50 [2] of 0.009 µM and an IC50 [3] of 0.989 µM. The IC50 [4] was 3.22 µM.
`COc1ccc(C(=O)c2sc(Nc3ccc(N4CCC(N5CCCCC5)CC4)cc3)nc2N)cc1F` [Example 31, [4-Amino-2-(4-[1,4′]bipiperidinyl-1′-yl-phenylamino)-thiazol-5-yl]-(3-fluoro-4-methoxy-phenyl)-methanone] was tested, and the IC50 [1] was 3.29 µM, the IC50 [2] was 0.028 µM and the IC50 [3] was 4.16 µM. For the same molecule, the IC50 [4] was 1.72 µM.
`CCNC1CCN(c2ccc(Nc3nc(N)c(C(=O)c4cccc(OC)c4)s3)cc2)C1` (stereo not drawn) [Example 134, {4-Amino-2-[4-(3-ethylamino-pyrrolidin-1-yl)-phenylamino]-thiazol-5-yl}-(3-methoxy-phenyl)-methanone] gave an IC50 [1] of 1.24 µM, an IC50 [2] of 0.046 µM and an IC50 [3] of 4.5 µM. It also gave an IC50 [4] of 1.33 µM.
For `CN(C)C1CCN(c2ccc(Nc3nc(N)c(C(=O)c4ccc5c(c4)OCO5)s3)cc2)CC1` [Example 43, {4-Amino-2-[4-(4-dimethylamino-piperidin-1-yl)-phenylamino]-thiazol-5-yl}-benzo[1,3]dioxol-5-yl-methanone], the IC50 [1] was 1.61 µM, the IC50 [2] was 0.007 µM and the IC50 [3] was 3.5 µM. The IC50 [4] was 0.5 µM.
With `CCOc1cccc(C(=O)c2sc(Nc3ccc(N4CCC(N5CCCC5)CC4)cc3)nc2N)c1` [Example 118, {4-Amino-2-[4-(4-pyrrolidin-1-yl-piperidin-1-yl)-phenylamino]-thiazol-5-yl}-(3-ethoxy-phenyl)-methanone] the IC50 [1] was 4.15 µM, the IC50 [2] was 0.031 µM and the IC50 [3] was 3.24 µM. For the same molecule, the IC50 [4] was 1.53 µM.
`CCNC1CCN(c2ccc(Nc3nc(N)c(C(=O)c4ccc(OC)c(F)c4)s3)cc2)C1` (stereo not drawn) [Example 133, {4-Amino-2-[4-(3-ethylamino-pyrrolidin-1-yl)-phenylamino]-thiazol-5-yl}-(3-fluoro-4-methoxy-phenyl)-methanone] was tested, and the IC50 [1] was 1.02 µM, the IC50 [2] was 0.066 µM and the IC50 [3] was 3.27 µM. For the same molecule, the IC50 [4] was 1.86 µM.
`Nc1nc(Nc2ccc(N3CCC(N4CCCC(O)C4)CC3)cc2)sc1C(=O)c1cccc([N+](=O)[O-])c1` (stereo not drawn) [Example 91, {4-Amino-2-[4-(3-hydroxy-[1,4′]bipiperidinyl-1′-yl)-phenylamino]-thiazol-5-yl}-(3-nitro-phenyl)-methanone] gave an IC50 [1] of 1.64 µM, an IC50 [2] of 0.009 µM and an IC50 [3] of 1.82 µM. The IC50 [4] was 0.71 µM.
`Nc1nc(Nc2ccc(N3CCC(N4CCCC(O)C4)CC3)cc2)sc1C(=O)c1ccc2c(c1)OCO2` (stereo not drawn) [Example 37, {4-Amino-2-[4-(3-hydroxy-[1,4′]bipiperidinyl-1′-yl)-phenylamino]-thiazol-5-yl}-benzo[1,3]dioxol-5-yl-methanone] gave an IC50 [1] of 0.1 µM, an IC50 [2] of 3.52 µM and an IC50 [3] of 0.52 µM. The IC50 [4] was 1.63 µM.
Molecule `Nc1nc(Nc2ccc(N3CCC(N4CCCC4)CC3)cc2)sc1C(=O)c1ccc2c(c1)OCCO2` [Example 26, {4-Amino-2-[4-(4-pyrrolidin-1-yl-piperidin-1-yl)-phenylamino]-thiazol-5-yl}-(2,3-dihydro-benzo[1,4]dioxin-6-yl)-methanone] has an IC50 [1] of 2.8 µM, an IC50 [2] of 0.005 µM and an IC50 [3] of 4.25 µM. The IC50 [4] was 1.06 µM.
For `CCNC1CCN(c2ccc(Nc3nc(N)c(C(=O)c4cccc(F)c4)s3)cc2)C1` (stereo not drawn) [Example 132, {4-Amino-2-[4-(3-ethylamino-pyrrolidin-1-yl)-phenylamino]-thiazol-5-yl}-(3-fluoro-phenyl)-methanone], the IC50 [1] was 0.568 µM, the IC50 [2] was 0.029 µM and the IC50 [3] was 0.701 µM. The IC50 [4] was 0.253 µM.
`N#Cc1cccc(C(=O)c2sc(Nc3ccc(N4CCC(N5CCCC5)CC4)cc3)nc2N)c1` [Example 72, 3-{4-Amino-2-[4-(4-pyrrolidin-1-yl-piperidin-1-yl)-phenylamino]-thiazole-5-carbonyl}-benzonitrile] gave an IC50 [1] of 2.5 µM, an IC50 [2] of 0.017 µM and an IC50 [3] of 2.05 µM. The IC50 [4] was 0.702 µM.
With `COc1cccc(C(=O)c2sc(Nc3ccc(N4CCC(N5CCCC5)CC4)cc3)nc2N)c1` [Example 27] the IC50 [1] was 1.85 µM, the IC50 [2] was 0.017 µM and the IC50 [3] was 3.49 µM. For the same molecule, the IC50 [4] was 1.06 µM.
With `Cc1ccc(C(=O)c2sc(Nc3ccc(N4CCC(N5CCCC5)CC4)cc3)nc2N)cc1F` [Example 121, {4-Amino-2-[4-(4-pyrrolidin-1-yl-piperidin-1-yl)-phenylamino]-thiazol-5-yl}-(3-fluoro-4-methyl-phenyl)-methanone] the IC50 [1] was 2.16 µM, the IC50 [2] was 0.011 µM and the IC50 [3] was 1.94 µM. It also gave an IC50 [4] of 0.7 µM.
